Test system: participants with relapsing multiple sclerosis (RMS)
Assay: Phase 2b study in RMS: safety and tolerability (adverse events, laboratory tests, ECG, vital signs)
Conditions: for proportion of participants with TEAEs: treatment period
[1] = 60 mg, 12 weeks treatment, n = 32
[2] = 60 mg, BTK inhibitor treatment period, safety population, N = 32
[3] = 60 mg, BTK inhibitor treatment period, safety population, N = 33
[4] = 12-week treatment period, 15 mg
[5] = 12-week treatment period, 30 mg
[6] = 12-week treatment period, 60 mg
[7] = All Dose Groups, 12 weeks treatment, N = 130
[8] = All Dose Groups, Weeks 1 to 12, N = 130
[9] = All, BTK inhibitor treatment period, safety population, N = 130

Compound: C=CC(=O)N1CCC[C@@H](n2c(=O)n(-c3ccc(Oc4ccccc4)cc3)c3c(N)nccc32)C1 [the BTK inhibitor, (R)-1-(1-acryloylpiperidin-3-yl)-4-amino-3-(4-phenoxyphenyl)-1H-imidazo[4,5-c]pyridin-2(3H)-one]
- Nasopharyngitis, patients % [1]: (9%)
- Nasopharyngitis, patients n [1]: 3
- Oropharyngeal pain, patients % [1]: (3%)
- Oropharyngeal pain, patients n [1]: 1
- Peripheral edema, patients % [1]: (6%)
- Peripheral edema, patients n [1]: 2
- Respiratory tract infection, patients % [1]: (3%)
- Respiratory tract infection, patients n [1]: 1
- Upper respiratory tract infection, patients % [1]: (3%)
- Upper respiratory tract infection, patients n [1]: 1
- AESI, Alanice aminotransferase increased, n (%) [2]: 1 (3.1)
- AESI, Investigations, n (%) [2]: 1 (3.1)
- Any AESI, n (%) [2]: 1 (3.1)
- Participants with any TEAE, % [3]: (54.5) %
- Participants with any treatment-related TEAE, % [3]: (6.1) %
- treatment-emergent SAE (60 mg, Cohort 1, MS relapse): One
- AESI, Alanice aminotransferase increased, n (%) (60 mg, Weeks 1 to 4, N = 16): 0
- AESI, Investigations, n (%) (60 mg, Weeks 1 to 4, N = 16): 0
- Any AESI, n (%) (60 mg, Weeks 1 to 4, N = 16): 0
- Participants with any TEAE, % (60 mg, Weeks 1 to 4, N = 33): (42.4) %
- Participants with any treatment-related TEAE, % (60 mg, Weeks 1 to 4, N = 33): (9.1) %
- Any AE, % (60 mg, Weeks 1 to 4, n = 16): (31.3%)
- Any treatment-related AE, % (60 mg, Weeks 1 to 4, n = 16): (6.3%)
- Any AE, % (60 mg, Weeks 1 to 12, n = 32): (50.0) %
- Any treatment-related AE, % (60 mg, Weeks 1 to 12, n = 32): (21.9) %
- Serious AE, % (60 mg, Weeks 1 to 12, n = 32): (3.1) %
- correlation between dose administered and number of TEAEs (5-60 mg): no direct correlation
- TEAE alanine aminotransferase increased (12-week treatment period, 5 mg): 1
- TEAE alopecia (12-week treatment period, 5 mg): 1
- TEAE back pain (12-week treatment period, 5 mg): 1
- TEAE gastroenteritis (12-week treatment period, 5 mg): 1
- TEAE headache (12-week treatment period, 5 mg): 1
- TEAE nasopharyngitis (12-week treatment period, 5 mg): 1
- TEAE oedema peripheral (12-week treatment period, 5 mg): 2
- TEAE oropharyngeal pain (12-week treatment period, 5 mg): 1
- TEAE upper respiratory tract infection (12-week treatment period, 5 mg): 2
- TEAE alopecia [4]: 1
- TEAE back pain [4]: 1
- TEAE headache [4]: 3
- TEAE respiratory tract infection [4]: 1
- TEAE upper respiratory tract infection [4]: 2
- TEAE alanine aminotransferase increased [5]: 1
- TEAE back pain [5]: 2
- TEAE headache [5]: 1
- TEAE muscle spasticity [5]: 1
- TEAE nasopharyngitis [5]: 1
- TEAE oropharyngeal pain [5]: 1
- TEAE respiratory tract infection [5]: 1
- TEAE upper respiratory tract infection [5]: 1
- TEAE accidental overdose [6]: 3
- TEAE alanine aminotransferase increased [6]: 1
- TEAE alopecia [6]: 1
- TEAE gastroenteritis [6]: 2
- TEAE headache [6]: 4
- TEAE muscle spasticity [6]: 2
- TEAE nasopharyngitis [6]: 3
- TEAE oedema peripheral [6]: 2
- TEAE oropharyngeal pain [6]: 1
- TEAE respiratory tract infection [6]: 1
- TEAE upper respiratory tract infection [6]: 1
- tolerability (12 weeks of treatment): well-tolerated
- Accidental overdose, patients n (%) [7]: 3 (2%)
- Alanine aminotransferase increased, patients n (%) [7]: 3 (2%)
- Alopecia, patients n (%) [7]: 3 (2%)
- Back pain, patients n (%) [7]: 4 (3%)
- Gastroenteritis, patients n (%) [7]: 3 (2%)
- Headache, patients n (%) [7]: 9 (7%)
- Muscle spasticity, patients n (%) [7]: 3 (2%)
- Nasopharyngitis, patients n (%) [7]: 5 (4%)
- Oropharyngeal pain, patients n (%) [7]: 3 (2%)
- Peripheral edema, patients n (%) [7]: 4 (3%)
- Respiratory tract infection, patients n (%) [7]: 3 (2%)
- Upper respiratory tract infection, patients n (%) [7]: 6 (5%)
- Any AE, % [8]: (53.8) %
- Any treatment-related AE, % [8]: (13.1) %
- Serious AE, % [8]: (0.8) %
- AESI, Alanice aminotransferase increased, n (%) [9]: 2 (1.5)
- AESI, Investigations, n (%) [9]: 2 (1.5)
- Any AESI, n (%) [9]: 2 (1.5)
- Participants with any TEAE, % [9]: (53.1) %
- Participants with any severe TEAE, % [9]: (0.8) %
- Participants with any treatment emergent SAE, % [9]: (0.8) %
- Participants with any treatment-related TEAE, % [9]: (11.5) %
- Participants with treatment emergent SAE(s), Any class, n(%) [9]: 1 (0.8)
- Participants with treatment emergent SAE(s), Multiple sclerosis relapse, n(%) [9]: 1 (0.8)
- Participants with treatment emergent SAE(s), NERVOUS SYSTEM DISORDERS, n(%) [9]: 1 (0.8)
- Participants with any TEAE, % (All, Weeks 1 to 4, N = 130): (38.5) %
- Participants with any treatment-related TEAE, % (All, Weeks 1 to 4, N = 130): (9.2) %
- TEAE headache (Weeks 1 to 4, 5 mg): 3 cases
- TEAE nausea (Weeks 1 to 4, 5 mg): 2 cases
- proportion of participants who experienced TEAEs (Weeks 1 to 4, 5 mg): 31.3%
- TEAE headache (Weeks 1 to 4, 15 mg): 2 cases
- proportion of participants who experienced TEAEs (Weeks 1 to 4, 15 mg): 18.8%
- TEAE nausea (Weeks 1 to 4, 30 mg): 1 cases
- proportion of participants who experienced TEAEs (Weeks 1 to 4, 30 mg): 12.5%
- TEAE headache (Weeks 1 to 4, 60 mg): 1 cases
- proportion of participants who experienced TEAEs (Weeks 1 to 4, 60 mg): 31.3%
- TEAE upper respiratory tract infection (Weeks 1 to 4, each treatment group): 1 case
- TEAEs leading to permanent treatment discontinuation (all dose groups): no TEAEs leading to permanent treatment discontinuation
- intensity of TEAEs (all dose groups): mild or moderate intensity except for one severe TEAE
- PCSAs related to vital signs, labs and ECGs (multiple treatment groups): no dose relationship
- proportion of participants with TEAEs (5 mg): 57.6%
- proportion of participants with TEAEs (15 mg): 53.1%
- proportion of participants with TEAEs (30 mg): 54.5%
- proportion of participants with TEAEs (60 mg): 50.0%
- AESIs (alanine aminotransferase increased >3×ULN) (whole study): two
- deaths (whole study): No deaths

From US20210244720A1, “Therapeutic Tyrosine Kinase Inhibitors for Relapsing Multiple Sclerosis (RMS)” (Genzyme Corporation, priority 2020, published 2021)
